Assay results from patent US8586569B2, “Betulonic and betulinic acid derivatives” (priority 2006, dated 2013).

System: lymphocytes of patients suffering from chronic lymphoid leukaemia (human leukaemia cells)
Assay: Sensibility of chronic lymphoid leukaemia lymphocytes in culture, 3H-thymidine incorporation (CPM) with or without PHA stimulation
Format: cell-based
Procedure: The sensibility of human leukaemia cells to acetoxymethyl 3β-(methoxypolyethylene glycol acetoxy)-lup-20(29)-en-28-oate 4c-β at different concentrations (from 0.04 mM up to 1 mM) was tested in vitro. The lymphocytes of three patients (4266866, 4266860 and 4262311) suffering from chronic lymphoid leukaemia were used in cell cultures.
On day 0: A multi-well plate was prepared per patient, each comprising 10^6 cells/well in a total volume of 1 ml. Cells, RPMI (cell growth medium) and test compound 4c-β were added in accordance with table 2 (all experiments were duplicated). The test compound dissolved in RPMI was added in the following amounts: 10 μl≡0.04 mM, 50 μl≡0.2 mM, 100 μl≡0.4 mM, 150 μl≡0.6 mM, 200 μl≡0.8 mM, and 250 μl≡1 mM.
On day 2: • 500 μl was taken from each well of plate 1 and put into a well of plate 2. • Plate 2: cells were tritiated with ^3H-thymidine for 4 hours; after the 4 hours incubation in the presence of radioactivity, plate 2 was harvested and radioactivity was counted. • Plate 1: 50 μl PHA was added to the 500 μl of each well of plate 1.
On day 5: • Plate 1: cells and PHA were tritiated with ^3H-thymidine for 4 hours; after the 4 hours incubation in the presence of radioactivity, plate 1 was harvested and radioactivity was counted.
PHA (a lectin named phytoagglutine, which is a mitogen activating living cells) was added to the cells in culture. PHA acts as a stimulating agent. All human lymphocytes have receptors for this type of lectin and all human lymphocytes undergo lymphoblastic transformation when stimulated by PHA. By adding PHA to the cells in culture, it was possible to measure whether the cells were still alive.
CPM stands for counts per minute and measures the disintegration of the tritiated ^3H-thymidine. Thus, CPM reflects the radioactivity of the cells' DNA having incorporated the tritiated ^3H-thymidine after mitosis. […]
On day 0: A multi-well plate was prepared, comprising 10^6 cells/well in a total volume of 1.5 ml. […] The test compound dissolved in RPMI was added in the following amounts: 125 μl≡0.5 mM and 250 μl≡1 mM. […]
The sensibility of human leukaemia cells to acetoxymethyl 3β-(methoxypolyethylene glycol acetoxy)-lupan-28-oate 8c-β at different concentrations (0.5 mM and 1 mM) was tested in vitro. The lymphocytes of one patient (4316182) suffering from chronic lymphoid leukaemia were used in cell cultures. […]
On day 2: • Plate 1: cells were tritiated with ^3H-thymidine for 4 hours; after the 4 hours incubation in the presence of radioactivity, plate 1 was harvested and radioactivity was counted. • Plate 2: cells were tritiated with ^3H-thymidine for 4 hours; after the 4 hours incubation in the presence of radioactivity, plate 2 was harvested and radioactivity was counted.

[1] = 0.5 mM and 1 mM, one patient, FIG. 4

Substance	activation of cells by PHA after contact with test compound (plate 1, PHA added day 2, counted day 5, 0.04 mM up to 1 mM, three patients, FIGS. 2a-c)	time within which cells contacted with test compound were killed (CPM after 3H-thymidine) (plate 2, 0.04 mM up to 1 mM, three patients, FIGS. 2a-c)	killing of cells by test compound [1]	reactivation of cells by addition of PHA after contact with test compound [1]
Acetoxymethyl 3β-(methoxypolyethylene glycol acetoxy)-lup-20(29)-en-28-oate [compound 4c-β]	could no longer be activated by PHA	≤ 48 h		
Acetoxymethyl 3β-(methoxypolyethylene glycol acetoxy)-lupan-28-oate [compound 8c-β]			killed the cells	unable to be reactivated by the addition of PHA
